Here are results for 1 molecule from paper PMC11125159 (Pharmaceutics, 2024).

The nature of this series: Pharmacokinetic assay in rats, plasma LIRA by UPLC-MS/MS. Type of series: in vivo. The note with it: male Wistar rats, subcutaneous, single dose 200 µg/kg of LIRA, mean ± SD, n = 6. The source says:
Ultra-performance liquid chromatography (Acquity UPLC© Waters, Milford, MA, USA), coupled with a triple quadrupole mass spectrometer (XEVO-TQD, Waters®) equipped with a Z sprayTM electrospray ionisation source (Waters®, Milford, MA, USA), was employed to detect, and quantify LIRA levels in rat plasma after treatment. An ACQUITY UPLC BEH C18 reversed-phase chromatographic column (50 mm × 2.1 mm; 1.7 µm) was used, with a mobile phase composed of acetonitrile and ultrapure water, both acidified with 0.1% formic acid, eluted in gradient mode, with varying proportions (20/80, 45/55, 60/40, 80/20, 90/10, 80/20, 30/70, 20/80) at specific time intervals (0, 1.5, 2.0, 2.5, 3.0, 3.5, 4.5, 6.0 min), with a flow rate of 0.3 mL/min, injection volume of 2 µL, with a total analysis time of 7.5 min. The samples were maintained at a temperature of 10 °C in the sampler, while the column oven was maintained at 40 °C. Detection by mass spectrometry was carried out in positive electrospray ionisation (ESI+) mode, in multiple reaction monitoring (MRM) mode, with a source temperature of 150 °C, capillary voltage equal to 3.5 kV, desolvation temperature of 600 °C, desolvation flow of 1000 L/h and gas flow in the cone of 50 L/h. […] The transitions set at m/z 938.7 → 1064.1 for LIRA and m/z 1184.7 → 454.4 for insulin detemir. […]

Marks after values point to notes of the source that are not given here.

As for `CCCCCCCCCCCCCCCC(=O)N[C@@H](CCC(=O)NCCCC[C@H](NC(=O)[C@H](C)NC(=O)[C@H](C)NC(=O)[C@H](CCC(N)=O)NC(=O)CNC(=O)[C@H](CCC(=O)O)NC(=O)[C@H](CC(C)C)NC(=O)[C@H](Cc1ccc(O)cc1)NC(=O)[C@H](CO)NC(=O)[C@H](CO)NC(=O)[C@@H](NC(=O)[C@H](CC(=O)O)NC(=O)[C@H](CO)NC(=O)[C@@H](NC(=O)[C@H](Cc1ccccc1)NC(=O)[C@@H](NC(=O)CNC(=O)[C@H](CCC(=O)O)NC(=O)[C@H](C)NC(=O)[C@@H](N)Cc1cnc[nH]1)[C@@H](C)O)[C@@H](C)O)C(C)C)C(=O)N[C@@H](CCC(=O)O)C(=O)N[C@@H](Cc1ccccc1)C(=O)N[C@H](C(=O)N[C@@H](C)C(=O)N[C@@H](Cc1c[nH]c2ccccc12)C(=O)N[C@@H](CC(C)C)C(=O)N[C@H](C(=O)N[C@@H](CCCNC(=N)N)C(=O)NCC(=O)N[C@@H](CCCNC(=N)N)C(=O)NCC(=O)O)C(C)C)[C@@H](C)CC)C(=O)O` [Free LIRA, Liraglutide], the Cl is given as 0.183 ± 0.015 ^b L/h.
